Experimental findings from ChEMBL document CHEMBL3763080, “Design and synthesis of a C7-aryl piperlongumine derivative with potent antimicrotubule and mutant p53-reactivating properties” (Eur J Med Chem, 2016) are described below.

As usually defined, the IC50 is the point on the concentration scale where inhibition reaches its midpoint.

For one test, the system named is SK-BR-3. Kind of test: Induction of microtubule destabilization in human SKBR3 cells assessed as soluble fraction of protein at 2.5 uM after 24 hrs by Western blot analysis. The format is cell-based. Background: A western blot detects proteins with antibodies after separation by electrophoresis.
Test [1] has as its system Cellular tumor antigen p53 (Homo sapiens), P04637 [R175H]. The test can be described thus: Reactivation of human p53 R175H mutant in human SKBR3 cells assessed as downregulation of CDC25C expression at 2.5 uM after 24 hrs by Western blot analysis. The format is cell-based. As to conditions: SK-BR-3.
Test [2] has the same test system. The test can be described thus: Reactivation of human p53 R175H mutant in human SKBR3 cells assessed as upregulation of PUMA expression after 24 hrs by Western blot analysis. The format is cell-based. As to conditions: SK-BR-3.
For test [3] the test system is unchanged. The test can be described thus: Reactivation of human p53 R175H mutant in human SKBR3 cells assessed as cell cycle arrest at G2/M phase at 2.5 uM after 24 hrs by propidium iodide staining based flow cytometric analysis. As to conditions: SK-BR-3. On the technique in general: A flow cytometer gives signals particle by particle.
Test [4] shares this test system. The test can be described thus: Reactivation of human p53 R175H mutant in human SKBR3 cells assessed as upregulation of cyclin B1 expression at 2.5 uM after 24 hrs by Western blot analysis. The format is cell-based. As to conditions: SK-BR-3.
The next test concerns the target Tubulin (Bos taurus) (UniProt Q6B856+Q862L2+Q862F3). Kind of test: Inhibition of bovine brain tubulin polymerization measured every 1 min for 30 mins by fluorescence assay.
The test system of test [5] is Cellular tumor antigen p53 (Homo sapiens), P04637 [R175H]. Kind of test: Reactivation of human p53 R175H mutant in human SKBR3 cells assessed as upregulation of Aurora kinase A expression at 2.5 uM after 24 hrs by Western blot analysis. As to conditions: SK-BR-3. It counts as cell-based.
For test [6] the test system is unchanged. Kind of test: Reactivation of p53 R175H mutant in human SKBR3 cells at 5 uM after 12 hrs by flow cytometric analysis. It counts as cell-based. As to conditions: SK-BR-3.
The test system is the same in test [7]. The test can be described thus: Reactivation of human p53 R175H mutant in human SKBR3 cells assessed as increase in wild type p53 expression after 12 hrs by immunoprecipitation/Western blot analysis. The format is cell-based. As to conditions: SK-BR-3.
The test system is the same in test [8]. The test can be described thus: Reactivation of human p53 R175H mutant in human SKBR3 cells assessed as upregulation of MDM2 expression after 24 hrs by Western blot analysis. As to conditions: SK-BR-3. The format is cell-based.
The test system is the same in test [9]. Kind of test: Reactivation of human p53 R175H mutant in SKBR3 cells assessed as increase in p53 DNA binding at 5 uM by biotinylated double stranded DNA probe-based electrophoretic-mobility shift assay. The format is cell-based. As to conditions: SK-BR-3.
Test [10] has the same test system. The test can be described thus: Reactivation of p53 R175H mutant in human SKBR3 cells assessed as accumulation of wild type p53 at 5 uM after 12 hrs by DAPI staining based confocal/multiphoton microscopic analysis. The format is cell-based. The conditions noted are these: SK-BR-3.
Test [11] has the same test system. The test can be described thus: Reactivation of human p53 R175H mutant in human SKBR3 cells assessed as decrease in mutant p53 expression after 12 hrs by immunoprecipitation/Western blot analysis. As to conditions: SK-BR-3. The format is cell-based. On the set-up: scale not given: the % may be the effect or the level left.
Test [12] shares this test system. Kind of test: Reactivation of human p53 R175H mutant in SKBR3 cells assessed as increase in p53 DNA binding at 5 uM by non biotinylated double stranded DNA probe-based electrophoretic-mobility shift assay. The format is cell-based. The conditions noted are these: SK-BR-3.
The test system is the same in test [13]. The test can be described thus: Reactivation of human p53 R175H mutant in human SKBR3 cells assessed as upregulation of p21cip1 expression after 24 hrs by Western blot analysis. The format is cell-based. As to conditions: SK-BR-3.
For the next test, the system named is T98G. The test can be described thus: Cytotoxicity against human T98G cells assessed as cell viability after 72 hrs by resazurin reduction assay. It counts as functional, cell-based. A general note: The colour change of resazurin is a common sign of viable cells or microbes.
Test [14] in a line: Cytotoxicity against human SKBR3 cells assessed as cell viability after 72 hrs by resazurin reduction assay. The format is functional, cell-based. As to conditions: SK-BR-3, 72 h.
Test [15] can be described thus: Cytotoxicity against human GBM10 cells assessed as cell viability after 72 hrs by resazurin reduction assay. The format is functional, cell-based. The conditions noted are these: GBM10, 72 h.
Test [16] is described as follows: Cytotoxicity against human SF188 cells assessed as cell viability after 72 hrs by resazurin reduction assay. It counts as functional, cell-based. The conditions noted are these: SF-188, 72 h.
Test [17] can be described thus: Cytotoxicity against human HT1080 cells assessed as cell viability after 72 hrs by resazurin reduction assay. As to conditions: HT-1080, 72 h. It counts as functional, cell-based.
Another test relates to MCF7. The test can be described thus: Cytotoxicity against human MCF7 cells assessed as cell viability after 72 hrs by resazurin reduction assay. It counts as functional, cell-based. The conditions noted are these: MCF7, 72 h.
For the next test, the system named is HT-29. The test can be described thus: Cytotoxicity against human HT-29 cells assessed as cell viability after 72 hrs by resazurin reduction assay. As to conditions: HT-29, 72 h. The format is functional, cell-based.
A further test concerns A549. Kind of test: Cytotoxicity against human A549 cells assessed as cell viability after 72 hrs by resazurin reduction assay. The format is functional, cell-based. As to conditions: A549, 72 h.

Active and inactive are the calls of the source. The calls are words filed in the database; no cut-off is given here. Bounds are passed on as bounds.

Consider `COC(=O)Nc1nc2cc(C(=O)c3cccs3)ccc2[nH]1`, for which, in the test on SK-BR-3, the outcome was Active.

For the compound `COc1ccc(/C(=C\c2cc(OC)c(OC)c(OC)c2)C(=O)N2CCC=CC2=O)cc1`, the outcome in [1], in test [4], in test [5], in test [6], in [9] and in test [10] was Active. The Activity result is “Dose-dependent effect” in test [2]; over 60% in test [3]; 80% in [7]; “Dose-dependent effect” in [8]; 90% in test [11]; “Dose-dependent effect” in [13]. For the same compound, the inhibition entry at Tubulin (Bos taurus) was “Dose-dependent effect”. Also, the result in test [12] was inactive.

On to `COc1ccc(/C=C\c2cc(OC)c(OC)c(OC)c2)cc1O` [COMBRETASTATIN A4], for which the IC50 with T98G was 0.011 µM; in test [14], 0.008 µM; in test [15] it was 0.052 µM; in [16], 0.021 µM; in test [17], 0.07 µM; in the test on MCF7, 0.042 µM. The concentration for half-maximal inhibition (IC50) in the test with HT-29 worked out at 0.42 µM; in the test on A549 it was 0.003 µM. Moreover, the inhibition entry on Tubulin (Bos taurus) is “Dose-dependent effect”.

As to `COc1cc(/C=C/C(=O)N2CCC=CC2=O)cc(OC)c1OC` [PIPLARTINE], the IC50 was 4.92 µM with T98G; 4.04 µM in test [14]; 3.81 µM in test [15]; 3.9 µM in [16]; 3.43 µM in [17]; 6.14 µM in the test with MCF7. The 50% inhibitory concentration (IC50) came out at 5.49 µM in the test on HT-29 and 6.54 µM with A549.
